# Target: T1, collagenase obtained from a culture of human synovial fibroblasts (Homo sapiens, UniProt P03956)
# T1 construct: endogenous in cells; host or cells: human synovial fibroblasts in culture (conditioned medium)
# T1 sequence (P03956 100-469): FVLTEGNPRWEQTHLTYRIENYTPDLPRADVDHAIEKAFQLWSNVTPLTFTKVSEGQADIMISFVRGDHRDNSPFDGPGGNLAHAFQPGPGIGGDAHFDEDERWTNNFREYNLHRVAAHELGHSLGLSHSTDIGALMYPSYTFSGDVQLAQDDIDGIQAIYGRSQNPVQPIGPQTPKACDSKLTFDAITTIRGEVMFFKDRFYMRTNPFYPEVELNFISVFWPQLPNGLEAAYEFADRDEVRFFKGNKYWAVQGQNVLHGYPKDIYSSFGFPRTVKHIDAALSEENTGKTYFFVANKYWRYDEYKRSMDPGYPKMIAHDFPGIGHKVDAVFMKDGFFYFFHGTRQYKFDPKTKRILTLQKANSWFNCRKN
# Assay: in vitro collagenase inhibiting activity (14C-acetylated collagen type I from rat tail tendons as substrate, microtitre plate assay)
# Assay type: biochemical
# Conditions: trypsin-activated collagenase from human synovial fibroblasts; 14C-acetylated collagen type I (rat tail tendons) substrate; concentration reducing substrate cleavage and solubilization to 50% of enzyme alone
# Experimental: As mentioned earlier, the compounds of formula I and their pharmaceutically acceptable salts are collagenase inhibitors. […] Collagenase activity was measured using ^14 C-acetylated collagen type I from rat tail tendons as the substrate and employing the microtitre plate assay method of Johnson-Wint, B, Anal. Biochem. (1980), 104, 175. The IC50 is that concentration of a compound or salt of the invention in the enzyme digestion which reduces substrate cleavage and solubilization to 50% of that achieved by the enzyme alone.
# The results obtained in the foregoing test with representative compounds and salts of the invention are compiled in Table I hereinafter: […]
row,SMILES,IC50 [nM]
1,"CC(C)C[C@@H](C(=O)N1CCOCC1)C(CN1C(=O)c2ccccc2C1=O)C(=O)NO (single isomer, unassigned) [Compound A, 4-[2(R)-[1(R or S)-(Hydroxycarbamoyl)-2-phthalimidoethyl]-4-methylvalery]morpholine]",10
2,"CC(C)C[C@@H](C(=O)N1CCCCC1)C(Cn1c(=O)n(C)n(C)c1=O)C(=O)NO (single isomer, unassigned) [Compound D, 1-[2(R)-[1(R or S)-(Hydroxycarbamoyl)-2-(1,2-dimethyl-3,5-dioxo-1,2,4-triazolidin-4-yl)ethyl]-4-methylvaleryl]piperidine]",15
3,"CC(C)C[C@@H](C(=O)N1CCC(O)CC1)C(CN1C(=O)N(C)C(C)(C)C1=O)C(=O)NO (single isomer, unassigned) [Compound G, 1-[2(R)-[1(R or S)-(Hydroxycarbamoyl)-2-(3,4,4-trimethyl-2,5-dioxo-1-imidazolidinyl)ethyl]-4-methylvaleryl]-4-piperidinol]",6.9
4,"CC(C)C[C@@H](C(=O)N1CCC(O)CC1)C(CN1C(=O)c2ccccc2C1=O)C(=O)NO (single isomer, unassigned) [Compound C, 1-[2(R)-[1(R or S)-(Hydroxycarbamoyl)-2-phthalimidoethyl]-4-methylvaleryl]-4-piperidinol]",5
5,"CNC(=O)[C@@H]1CCCNN1C(=O)[C@H](CC(C)C)C(CN1C(=O)c2ccccc2C1=O)C(=O)NO (single isomer, unassigned) [Compound F, Hexahydro-2-[2(R)-[1(R or S)-(hydroxycarbamoyl)-2-phthalimidoethyl]-4-methylvaleryl]-N-methyl-3(S)-pyridazinecarboxamide]",1.2
6,"CC(C)C[C@@H](C(=O)N1CCSCC1)C(CN1C(=O)c2ccccc2C1=O)C(=O)NO (single isomer, unassigned) [Compound B, 4-[2(R)-[1(R or S)-(Hydroxycarbamoyl)-2-phthalimidoethyl]-4-methylvaleryl]tetrahydro-1,4-thiazine]",6
7,"CC(C)C[C@@H](C(=O)N1CCSCC1)C(CN1C(=O)CN(C)C1=O)C(=O)NO (single isomer, unassigned) [Compound E, 4-[2(R)-[1(R or S)-(Hydroxycarbamoyl)-2-(3-methyl-2,5-dioxo-1-imidazolidinyl)ethyl]-4-methylvaleryl]tetrahydro-1,4-thiazine]",7

# Reference: patent US5318964A, “Hydroxamic derivatives and pharmaceutical compositions” (Hoffmann-La Roche Inc., priority 1992, dated 1994)
